Measurements as given in patent US12257239B1, “Cytotoxic treatment of cancer cells” (IMAM MOHAMMAD IBN SAUD ISLAMIC UNIVERSITY, priority 2024, dated 2025).
Values after ≈ are worked out from the molar mass of the structure shown.

Key:
[1] = test system: human non-small cell lung cancer (A549); assay: Growth inhibition of cancerous cells, A549; assay type: cell-based; details: for IC50: A549
Description: (§1) The compound of Formula I was tested for its antitumor activity against various cancer cell lines, in vitro, in non-small cell lung cancer (A549), colorectal carcinoma (HCT116), prostate cancer (PC3), pharynx squamous carcinoma (FaDu), triple-negative breast cancer (MDA-MB-468), cervical cancer (HeLa), and human oral epithelial normal cell line (OEC).

[2] = test system: colorectal carcinoma (HCT116); assay: Growth inhibition of cancerous cells, HCT116; assay type: cell-based; details: Homo sapiens, HCT-116; HCT116, 100 μg/mL; read-out: growth inhibition percentage
Description: as §1

prostate cancer (PC3) = assay: Growth inhibition of cancerous cells, PC3; assay type: cell-based; details: Homo sapiens; PC3, 100 μg/mL; read-out: growth inhibition percentage
Description: as §1

[3] = test system: pharynx squamous carcinoma (FaDu); assay: Growth inhibition of cancerous cells, FaDu; assay type: cell-based; details: Homo sapiens
Description: as §1

[4] = test system: triple-negative breast cancer (MDA-MB-468); assay: Growth inhibition of cancerous cells, MDA-MB-468; assay type: cell-based; details: Homo sapiens; for IC50: MDA-MB-468
Description: as §1

cervical cancer (HeLa) = assay: Growth inhibition of cancerous cells, HeLa; assay type: cell-based; details: Homo sapiens
Description: as §1

[5] = test system: human oral epithelial normal cell line (OEC); details: 100 μg/mL
Description: as §1

[6] = 100 μg/mL, read-out: growth inhibition percentage

| IC50 [1] [µg/mL] | IC50 [3] [µg/mL] | IC50 [4] [µg/mL] | IC50 (cervical cancer (HeLa)) [µg/mL] | SMILES | inhibition at 100 µg/mL ([1]; A549, 100 μg/mL, read-out: growth inhibition percentage) [%] | inhibition at 100 µg/mL [2] [%] | inhibition at 100 µg/mL (prostate cancer (PC3)) [%] | inhibition at 100 µg/mL [3, 6] [%] | inhibition at 100 µg/mL ([4]; MDA-MB-468, 100 μg/mL, read-out: growth inhibition percentage) [%] | inhibition at 100 µg/mL (cervical cancer (HeLa); [6]) [%] | growth inhibition percentage [5] [%] |
| --- | --- | --- | --- | --- | --- | --- | --- | --- | --- | --- | --- |
| 6 | 5.03 | 5.5 | 5.03 | O=C1S/C(=C\c2cc([N+](=O)[O-])ccc2O)C(=O)N1CCN1C(=O)c2ccccc2C1=O [Formula I, 3-(2-(1,3-dioxoisoindolin-2-yl)ethyl)-5-(2-hydroxy-5-nitrobenzylidene)thiazolidine-2,4-dione] | 78 | 85.7 | 83.8 | 89.1 | 90.8 | 70.8 | 48.89 |
| 7.63 (≈ 14 µM) | 13.2 (≈ 24.2 µM) | 7.76 (≈ 14.3 µM) | 4.83 (≈ 8.89 µM) | COc1cccc2c1C(=O)c1c(O)c3c(c(O)c1C2=O)C[C@@](O)(C(=O)CO)C[C@@H]3O[C@H]1C[C@H](N)[C@H](O)[C@H](C)O1 [doxorubicin, reference compound] |  |  |  |  |  |  |  |
